From patent publication US12070444B2, “Modulation of molecular markers using S-equol” (Board of Regents, The University of Texas System, priority 2020, dated 2024)
“Also recorded” adds a separate entry of the source.

What was measured:
[1] = tested on: MDA-MB-231 cell-derived xenograft tumor; assay: MDA-MB-231 xenograft in athymic nude mice; format: in vivo
Experimental: Further work in a preclinical animal model supports the notion of using S-equol to treat TNBC breast cancer. In immunocompromised mouse xenograft experiments, which used MDA-MB-231, a human TNBC breast cancer cell line, growth of tumors was suppressed by 60% with S-equol treatment compared to control. 5×10^6 MDA-MB-231 cells were injected orthotopically into mammary gland fat pads of 6 week-old female athymic nude mice (Harlan). When the tumor masses reached 50 to 80 mm^3 (about one week after the inoculation), the mice were given daily subcutaneous injections of S-equol (20 or 60 mg/kg per day) or PBS as a vehicle control. Tumor development was followed by caliper measurements along two orthogonal axes: length (L) and width (W) and volume (V) was estimated by the formula V=[L×(W^2)]/2. […] Representative tumor sections from vehicle control and S-equol-treated mice were tested for Ki-67 expression to assess cell proliferation, and for ERβ ([…]. Statistical significance in the experiments was assessed by two-tailed Student's t test. In all assays, p<0.05 was considered statistically significant. The results of these experiments are shown in FIGS. 16 and 20. See, Yuan et al. 2016 listed below, which is incorporated by reference herein for all purposes.

ERβ pY36 = molecular target: T1, ERβ pY36 (Homo sapiens, UniProt Q92731); details: breast cancer cells; published work (Yuan, 2016); cited from earlier work
T1 construct: host or cells: MDA-MB-231 (human TNBC cell line)
T1 sequence (Q92731 whole entry): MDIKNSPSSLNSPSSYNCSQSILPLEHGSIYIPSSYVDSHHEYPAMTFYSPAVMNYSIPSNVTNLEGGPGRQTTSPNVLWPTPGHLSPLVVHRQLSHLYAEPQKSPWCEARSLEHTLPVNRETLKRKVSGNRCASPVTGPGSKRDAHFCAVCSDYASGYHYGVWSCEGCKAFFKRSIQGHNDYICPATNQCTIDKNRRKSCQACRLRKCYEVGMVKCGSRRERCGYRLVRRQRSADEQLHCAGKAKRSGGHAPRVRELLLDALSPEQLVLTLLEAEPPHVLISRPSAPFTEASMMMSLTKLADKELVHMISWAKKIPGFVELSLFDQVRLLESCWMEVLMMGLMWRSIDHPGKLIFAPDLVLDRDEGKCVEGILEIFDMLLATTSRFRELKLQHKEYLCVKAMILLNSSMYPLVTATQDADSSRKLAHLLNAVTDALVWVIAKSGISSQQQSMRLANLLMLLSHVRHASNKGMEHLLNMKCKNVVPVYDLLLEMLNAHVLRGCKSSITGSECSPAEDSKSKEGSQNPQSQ

rat hippocampal neurons = details: cited from earlier work
[2] = tested on: B16 melanoma tumor cell line; assay: B16 melanoma tumor challenge in mice treated with S-equol and/or anti-PD-1 antibody; format: in vivo, mouse
Experimental: FIG. 4. A schema for combination therapy. Mice were administered one of: (1) vehicle+rat IgG2a; (2) S-equol+rat IgG2a; (3) vehicle+anti-PD-1 antibody; or (4) S-equol+anti-PD-1 antibody. Mice receiving anti-PD-1 antibody were given 250 μg every 3 days, intraperitoneally, and mice receiving S-equol were given 50 mg/kg per day by oral gavage. Treatment started 7 days after tumor challenge with B16 melanoma.
Melanoma cell line B16 was tested to determine the effects of a PD-1 inhibitor, S-equol and a combination of the two therapies on tumor growth. This experimental design includes four arms: (1) controls, (2) αPD-1, (3) S-equol, and (4) αPD-1+S-equol (FIG. 4) by injecting into mice 5×10^5 cells subcutaneously. Antibodies were administered α-PD-1: 250 μg/mice by i.p. injection every 3 days and S-equol was administered at 50 mg/kg/day by oral gavage. Treatment began 7 day after tumor challenge. Tumor growth trajectories were compared within treated mice using a repeated measures linear mixed model. The primary outcome was the logarithm of the tumor size, and the test statistic is the treatment×time interaction. Tumors were measured about 10 times. The number of recipient mice use used in the studies (n=6 per group) was based on the above study.
For tumor studies, 8 to 10-week-old mice were used. M-Wnt (5 Å˜10^5 cells), E0771 (5 Å˜10^5 cells), AT-3 (2 Å˜10^5 cells), and EMT-6 (5 Å˜10^5 cells) tumor cells were subcutaneously inoculated into the fourth mammary pad. B16F10 (0.5 Å˜10^6 cells) and MC38 (5 Å˜10^6 cells) tumor cells were subcutaneously inoculated into the back flank. Tumor volume was measured with calipers (0.5 Å˜length Å˜width2) on the indicated days. Anti-IgG2a (BioXcell, Cat: #BE0146) and anti-PD-1 (BioXcell, Cat: #BE0089) antibodies were administered through intraperitoneal (i.p.) injection at a dose of […] every 3 days starting on day 7 after tumor challenge for the duration as indicated. S-equol (from Ausio Pharmaceuticals) was administered daily by oral gavage at 50 mg/kg beginning on the day of tumor challenge and continuing throughout the entire tumor growth experiments.

cytochrome oxidase (COX) = details: brains from ovariectomized mice; cited from earlier work

For `Oc1ccc([C@H]2COc3cc(O)ccc3C2)cc1` [S-equol], the xenograft tumor growth ([1]; S-equol vs vehicle (FIG. 16B, FIG. 20)) is given as “inhibited; also recorded: reduces the growth of TNBC cells”, the “growth of tumors suppressed compared to control” value ([1]; daily s.c. S-equol 20 or 60 mg/kg per day vs PBS) is given as 60% and the “human ERβ phosphorylation at Y36” value (ERβ pY36) is given as “promotes”. For the same compound, the “respiratory and maximal glycolysis fluxes” value (rat hippocampal neurons) was “increase”, the tumor weight ([2]; B16 melanoma (FIG. 8A)) was “reduce tumor weight compared to control” and the “tumor response (growth and tumor weight)” value ([2]; B16 melanoma, Example 14, four arms (FIG. 26B-C)) was “responded”. For the same compound, the tumor volume ([2]; B16 melanoma, anti-PD-1 250 μg every 3 days i.p., S-equol 50 mg/kg per day oral gavage, over 12 days post-challenge (FIG. 6)) was “reduce tumor volume compared to control”, the tumor volume ([2]; B16 melanoma, anti-PD-1 250 μg every 3 days i.p., S-equol 50 mg/kg per day oral gavage, over 19 days post-challenge (FIG. 7)) was “reduce tumor volume compared to control” and the tumor volume ([2]; B16 melanoma, legend headed over 16 days, text says over 12 days post-challenge (FIG. 9A)) was “reduce tumor volume compared to control”. For the same compound, the “cytochrome oxidase (COX) activity and COX1 protein levels” value (cytochrome oxidase (COX)) was “increase”.
